How the values were obtained:
[1] = times that of saccharose, cited from earlier work
[2] = electronic tongue tasting, intelligent gustation analysis system TS-5000Z; details: 1% (mass concentration) saccharose as standard; FIG. 1-FIG. 3
Text: Method II: an intelligent gustation analysis system TS-5000Z, namely an electronic tongue is adopted to perform tasting, an artificial fat membrane sensor technology, of which an operating principle is similar to that of human tongue gustation cells, is employed, basic gustatory sensory indexes such as bitter taste, astringent taste, sour taste, saline taste, fresh taste, sweet taste and raw material original taste of samples such as foods or drugs can be objectively and digitally evaluated, and meanwhile, a bitter aftertaste, an astringent aftertaste and a fresh aftertaste (abundance) can be further analyzed. Drawing is performed according to test data, and electronic tongue tasting test data graphs of the natural compound sweeteners in the embodiments 1-3 are separately shown in FIG. 1-FIG. 3.

C[C@H](CC[C@@H](O[C@@H]1O[C@H](CO[C@@H]2O[C@H](CO)[C@@H](O)[C@H](O)[C@H]2O)[C@@H](O)[C@H](O)[C@H]1O[C@@H]1O[C@H](CO)[C@@H](O)[C@H](O)[C@H]1O)C(C)(C)O)[C@H]1CC[C@@]2(C)[C@@H]3CC=C4[C@@H](CC[C@H](O[C@@H]5O[C@H](CO[C@@H]6O[C@H](CO)[C@@H](O)[C@H](O)[C@H]6O)[C@@H](O)[C@H](O)[C@H]5O)C4(C)C)[C@]3(C)[C@H](O)C[C@]12C [Mogroside V]
maximum sweetness relative to saccharose [1]: 420 times

C=C1C[C@@]23CC[C@H]4[C@@](C)(CCC[C@@]4(C)C(=O)O[C@@H]4O[C@H](CO)[C@@H](O)[C@H](O)[C@H]4O)[C@@H]2CC[C@]1(O[C@@H]1O[C@H](CO)[C@@H](O)[C@H](O[C@@H]2O[C@H](CO)[C@@H](O)[C@H](O)[C@H]2O)[C@H]1O[C@@H]1O[C@H](CO)[C@@H](O)[C@H](O)[C@H]1O)C3 [rebaudioside A]
electronic tongue taste profile [2]: partial to a herbal medicine taste, namely a raw-material original taste is very strong

rebaudioside C [Reb C]
sweetness relative to saccharose ([1]; from CN104144605A discussion): 300 times
